Measurements reported in publication PMC6341602, “Cytosolic group IVA phospholipase A2 inhibitors, AVX001 and AVX002, ameliorate collagen-induced arthritis” (Arthritis Research & Therapy, 2019).

Biological target: T1, GIVA cPLA2 (cPLA2α) (Homo sapiens, UniProt P47712)
T1 construct: gene PLA2G4A
T1 sequence (P47712 1-749): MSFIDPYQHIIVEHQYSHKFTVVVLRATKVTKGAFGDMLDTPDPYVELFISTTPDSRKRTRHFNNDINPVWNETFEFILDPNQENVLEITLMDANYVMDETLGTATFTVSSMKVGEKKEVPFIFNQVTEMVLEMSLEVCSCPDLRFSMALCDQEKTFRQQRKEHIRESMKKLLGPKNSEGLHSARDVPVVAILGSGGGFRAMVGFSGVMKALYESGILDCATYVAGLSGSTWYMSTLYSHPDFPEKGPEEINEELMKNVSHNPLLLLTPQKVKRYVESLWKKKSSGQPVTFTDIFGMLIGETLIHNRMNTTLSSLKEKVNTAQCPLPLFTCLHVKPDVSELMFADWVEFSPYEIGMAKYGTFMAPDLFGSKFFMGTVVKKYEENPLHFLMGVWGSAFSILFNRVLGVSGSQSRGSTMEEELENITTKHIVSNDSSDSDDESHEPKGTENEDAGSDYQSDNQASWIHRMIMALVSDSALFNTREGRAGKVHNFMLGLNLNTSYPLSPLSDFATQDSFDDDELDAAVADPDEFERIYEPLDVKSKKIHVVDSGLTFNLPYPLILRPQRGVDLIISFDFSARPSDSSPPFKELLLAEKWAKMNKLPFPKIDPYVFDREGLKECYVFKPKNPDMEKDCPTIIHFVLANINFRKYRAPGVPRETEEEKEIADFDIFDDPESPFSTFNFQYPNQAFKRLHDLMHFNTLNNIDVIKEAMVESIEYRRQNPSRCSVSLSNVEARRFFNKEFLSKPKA
Experiment: in vitro mixed micelle modified Dole assay ([…]-PAPC)
Type: biochemical

Row | Compound | In vitro enzyme activity / GIVA cPLA2 / XI(50)
1 | CC/C=C\C/C=C\C/C=C\C/C=C\CC/C=C/CSCC(=O)C(F)(F)F [AVX001, (6E,10Z,13Z,16Z,19Z)-1,1,1-trifluoro-4-thiadocosa-6,10,13,16,19-pentaen-2-one] | 0.0072 ± 0.0007 mole fraction (XI(50))
2 | CC/C=C\C/C=C\C/C=C\C/C=C\C/C=C\CCSCC(=O)C(F)(F)F [AVX002, 1,1,1-trifluoro-3-(((3Z,6Z,9Z,12Z,15Z)-octadeca-3,6,9,12,15-pentaen-1-yl)thio)propan-2-one] | 0.0057 ± 0.001 mole fraction (XI(50))
